Assay results reported in the supplement of paper PMC12513837.
± gives the standard deviation of the averaged measurements.

Compound: CC(=O)N1CCc2c(c(N3CCCc4cc(-c5cnn(C)c5)c(C(F)F)cc43)nn2C2CCC(CN3CCN(c4ccc5c(c4)C(=O)N(C4CCC(=O)NC4=O)C5=O)CC3)CC2)C1 [CBPD-409]
Test: AUC of viability dose-response curve (relative to vehicle, 8 doses up to 10 µM) (fraction); higher = less sensitive (more viable); extreme values may be limits of the assay
Procedure: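 PRISM multiplexed pooled barcoded cell line viability screen at the Broad Institute, 887 cancer cell lines treated with CBPD-409 (p300/CBP PROTAC degrader) at 8 concentrations in threefold dilution, top dose 10 µM. The read-out is the area under the dose-response curve of relative viability versus vehicle (n=3). AUC < 0.3 is called strongly sensitive and AUC > 0.8 resistant.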

Row | Test System | AUC of viability dose-response curve
1 | IM95_STOMACH | 0.57
2 | OCILY18_HAEMATOPOIETIC_AND_LYMPHOID_TISSUE | 0.451
3 | PANC0813_PANCREAS | 0.953
4 | SW1573_LUNG | 1
5 | TGBC18TKB_LARGE_INTESTINE | 0.938
6 | LU99_LUNG | 0.831
7 | SNU1_STOMACH | 1
8 | KE97_STOMACH | 1
9 | FTC133_THYROID | 0.549
10 | CORL88_LUNG | 0.612
11 | RD_SOFT_TISSUE | 0.657 ± 0.29
12 | DND41_HAEMATOPOIETIC_AND_LYMPHOID_TISSUE | 0.567
13 | COGE352_BONE | 1
14 | KKU055_BILIARY_TRACT | 0.915
15 | JHOS2_OVARY | 0.472
16 | MEL285_UVEA | 0.639
17 | PANC0504_PANCREAS | 0.671
18 | RT112_URINARY_TRACT | 0.83
19 | SW1710_URINARY_TRACT | 0.8
20 | OSC20_UPPER_AERODIGESTIVE_TRACT | 0.936
21 | SKPNDW_BONE | 1
22 | BLUE1_HAEMATOPOIETIC_AND_LYMPHOID_TISSUE | 0.311
23 | UACC62_SKIN | 0.901
24 | HSC3_UPPER_AERODIGESTIVE_TRACT | 0.936
25 | CFPAC1_PANCREAS | 1

Row | Test System | AUC of viability dose-response curve
26 | JMURTK2_SOFT_TISSUE | 0.399
27 | RERFGC1B_STOMACH | 0.993
28 | HCC56_LARGE_INTESTINE | 0.809
29 | KARPAS1718_HAEMATOPOIETIC_AND_LYMPHOID_TISSUE | 0.585
30 | PSN1_PANCREAS | 0.639
31 | OCIP5X_OVARY | 1
32 | LC1SQSF_LUNG | 0.991
33 | SF295_CENTRAL_NERVOUS_SYSTEM | 0.833
34 | KMRC3_KIDNEY | 0.906
35 | OVKATE_OVARY | 1
36 | MKN74_STOMACH | 0.493
37 | MP41_UVEA | 0.212
38 | HCC78_LUNG | 0.807
39 | HS683_CENTRAL_NERVOUS_SYSTEM | 1
40 | LOXIMVI_SKIN | 0.845
41 | TE15_OESOPHAGUS | 0.364
42 | A253_SALIVARY_GLAND | 0.883
43 | SNU668_STOMACH | 0.999
44 | MCAS_OVARY | 1
45 | CL34_LARGE_INTESTINE | 0.812
46 | SNU410_PANCREAS | 1
47 | CI1_HAEMATOPOIETIC_AND_LYMPHOID_TISSUE | 0.674
48 | ICC9_BILIARY_TRACT | 1
49 | MHHNB11_AUTONOMIC_GANGLIA | 0.488
50 | LNCAPCLONEFGC_PROSTATE | 0.249

Row | Test System | AUC of viability dose-response curve
51 | IGR39_SKIN | 0.847
52 | HT115_LARGE_INTESTINE | 1
53 | KKU100_BILIARY_TRACT | 0.994
54 | UPCISCC072_UPPER_AERODIGESTIVE_TRACT | 0.625
55 | U251MG_CENTRAL_NERVOUS_SYSTEM | 0.873
56 | TT_THYROID | 0.15
57 | RH30_SOFT_TISSUE | 0.841 ± 0.22
58 | UMUC6_URINARY_TRACT | 0.585
59 | HS766T_PANCREAS | 0.73
60 | HKGZCC_BILIARY_TRACT | 1
61 | SKMEL30_SKIN | 0.703
62 | SNU899_UPPER_AERODIGESTIVE_TRACT | 0.668
63 | NOMO1_HAEMATOPOIETIC_AND_LYMPHOID_TISSUE | 0.279
64 | NCIH1838_LUNG | 0.758
65 | COLO320_LARGE_INTESTINE | 1
66 | CHL1_SKIN | 0.148
67 | SW13_ADRENAL_CORTEX | 0.602
68 | U178_CENTRAL_NERVOUS_SYSTEM | 0.636
69 | RBE_BILIARY_TRACT | 1
70 | PANC0403_PANCREAS | 0.725
71 | SW156_KIDNEY | 0.884
72 | A101D_SKIN | 1
73 | OCIAML2_HAEMATOPOIETIC_AND_LYMPHOID_TISSUE | 0.551
74 | CAL54_KIDNEY | 0.502
75 | 8305C_THYROID | 0.823

Row | Test System | AUC of viability dose-response curve
76 | K029AX_SKIN | 0.793
77 | RH28_SOFT_TISSUE | 0.625
78 | LS411N_LARGE_INTESTINE | 0.988
79 | MM1S_HAEMATOPOIETIC_AND_LYMPHOID_TISSUE | 0.328
80 | SNU1077_ENDOMETRIUM | 0.846
81 | OVK18_OVARY | 0.365
82 | ONDA9_CENTRAL_NERVOUS_SYSTEM | 1
83 | SQ1_LUNG | 1
84 | HTMMT_ENDOMETRIUM | 0.65
85 | NCIH2126_LUNG | 1
86 | MPP89_PLEURA | 1
87 | TE5_OESOPHAGUS | 0.998
88 | SNU1196_BILIARY_TRACT | 1
89 | HS852T_SKIN | 1
90 | A2058_SKIN | 1
91 | CCFSTTG1_CENTRAL_NERVOUS_SYSTEM | 0.992
92 | KYSE410_OESOPHAGUS | 0.901
93 | EFM192A_BREAST | 0.645
94 | HT1197_URINARY_TRACT | 1
95 | HGC27_STOMACH | 0.316
96 | MOLT3_HAEMATOPOIETIC_AND_LYMPHOID_TISSUE | 1
97 | RMSYM_SOFT_TISSUE | 0.394
98 | HEP3B217_LIVER | 0.4
99 | NCIH2030_LUNG | 1
100 | SNU407_LARGE_INTESTINE | 0.502

Row | Test System | AUC of viability dose-response curve
101 | SNU886_LIVER | 0.853
102 | ABC1_LUNG | 0.977
103 | HT1080_SOFT_TISSUE | 1
104 | PC14_LUNG | 0.877
105 | HT_HAEMATOPOIETIC_AND_LYMPHOID_TISSUE | 0.672
106 | PACADD137_PANCREAS | 0.587
107 | ECC2_BILIARY_TRACT | 0.402
108 | YKG1_CENTRAL_NERVOUS_SYSTEM | 0.584
109 | BHY_UPPER_AERODIGESTIVE_TRACT | 0.851
110 | IGROV1_OVARY | 0.956
111 | OCILY3_HAEMATOPOIETIC_AND_LYMPHOID_TISSUE | 0.617
112 | MCC13_SKIN | 1
113 | COLO783_SKIN | 0.837
114 | CAKI1_KIDNEY | 0.644
115 | SH10TC_STOMACH | 0.626
116 | U343_CENTRAL_NERVOUS_SYSTEM | 1
117 | NCIH2170_LUNG | 1
118 | H413_UPPER_AERODIGESTIVE_TRACT | 0.842
119 | SIMA_AUTONOMIC_GANGLIA | 0.3 ± 0.073
120 | TASK1_CENTRAL_NERVOUS_SYSTEM | 0.342
121 | SW1463_LARGE_INTESTINE | 1
122 | OVTOKO_OVARY | 0.781
123 | SKMEL24_SKIN | 1
124 | HOTHC_THYROID | 0.845
125 | JHUEM7_ENDOMETRIUM | 1

Row | Test System | AUC of viability dose-response curve
126 | BL2_HAEMATOPOIETIC_AND_LYMPHOID_TISSUE | 0.77
127 | KP2_PANCREAS | 0.512
128 | OE33_OESOPHAGUS | 0.776
129 | TM87_SOFT_TISSUE | 0.367 ± 0.19
130 | SSP25_BILIARY_TRACT | 0.801
131 | SW756_CERVIX | 0.437
132 | PK8_PANCREAS | 0.556
133 | ONS76_CENTRAL_NERVOUS_SYSTEM | 0.922 ± 0.11
134 | TUHR4TKB_KIDNEY | 1
135 | KMBC2_URINARY_TRACT | 0.841
136 | GSS_STOMACH | 0.349
137 | MEL290_UVEA | 0.688
138 | U2OS_BONE | 1
139 | IALM_LUNG | 0.311
140 | PC3_PROSTATE | 0.763
141 | HEC116_ENDOMETRIUM | 0.78
142 | HL60_HAEMATOPOIETIC_AND_LYMPHOID_TISSUE | 0.516
143 | AGS_STOMACH | 0.812
144 | CCK81_LARGE_INTESTINE | 0.86
145 | RERFLCAD2_LUNG | 0.946
